Source: patent publication US8597646B2, “Methods and compositons featuring TGF-beta antagonists for the treatment of marfan syndrome and associated disorders” (The Johns Hopkins University, priority 2005, dated 2013)

Test system: young patients with an aggressive rate of aortic growth
Assay: Losartan in young patients with aggressive rate of aortic growth despite standard therapy
Format: in vivo, human
Conditions: n=8, despite β-adrenergic/ACE blockade, monopotassium salt
Procedure: Markers of TGFβ antagonism have included reduced plasma levels of free TGFβ, reduced intracellular initiation of the TGFβ signaling cascade, and reduced tissue expression of TGFβ-responsive genes. […] Three independent measurements of the aortic root were made from the long axis echo view in systole at each of 3 time points (baseline, 2 and 4 months of treatment; FIG. 8A). All analyses were performed blinded to genotype and treatment arm. […] This represents the first therapeutic strategy for MFS that derives from interrogation of disease pathogenesis and the first possibility for primary prevention of disease manifestations.

CCCCc1nc(Cl)c(CO)n1Cc1ccc(-c2ccccc2-c2nnn[nH]2)cc1.[K] [losartan, 2-butyl-4-chloro-1-[p-(o-1H-tetrazol-5-ylphenyl)benzyl]imidazole-5-methanol monopotassium salt]
Response of aortic growth in patients (listed as Losartan): effective
Response of aortic growth in patients: remarkable response
